From patent US20030198692A1, “Microbial inhibitory compositions” (priority 2000, published 2003)

Experiments:
Assay type in all cases: cell-based
Candida albicans = assay: Growth of Candida albicans in the presence of furanone 57 with or without EDTA
Protocol: The yeast, Candida albicans, was tested in the presence of furanone 57 at 250 ng/ml. […] In combination with 0.01% EDTA the growth of the cells was inhibited for at least 32 hrs.

Corynebacterium jeikeium = assay: Growth of Corynebacterium jeikeium in the presence of furanone 2 and EDTA; conditions: compound 100 μg/ml in combination with EDTA 0.02%
Protocol: Moreover, the growth of the Gram-positive bacteria, Corynebacterium jeikeium, was inhibited by compound 2 (100 μg/ml) in combination with EDTA (0.02%). The lagphase of growth was prolonged for 20 hr.

Escherichia coli = assay: Growth of Escherichia coli in the presence of polymyxin B and furanones; conditions: furanone 10 μg/ml with polymyxin B 0.3-1 μg/ml
Protocol: Growth of Gram negative bacteria is not generally affected by furanone compounds alone. […] In order to explore this concept, the antibiotic polymyxin B was included in the initial round of experiments (see FIGS. 2, 3 and 4) involving the bacteria Escherichia coli, Burkholdera cepacia and Pseudomonas aeruginosa. […] Different furanone compounds under test were applied at 10 μg/ml (concentration of stock solution of furanone compound or mixture of compounds was 2 mg/ml) and polymyxin B was employed at concentrations which ranged from 0.3-1 μg/ml (stock solution was 10 mg/ml).

Pseudomonas aeruginosa = assay: Growth of Pseudomonas aeruginosa in the presence of furanones, alone or with a cell-permeabilising agent; conditions: for prevention of growth of P. aeruginosa (ranking): furanone 10 μg/ml with EDTA 0.02%
Protocol: Ten furanones (compounds 2, 3, 19, 30, 45, 55, 56, 24/25, 26/27 and 33/34) (see Table 2) were tested against growth of Gram negative bacteria in a combination treatment using a cell permeabilising agent (Polymyxin B and EDTA).
Different furanone compounds under test were applied at 10 μg/ml (concentration of stock solution of furanone compound or mixture of compounds was 2 mg/ml) and polymyxin B was employed at concentrations which ranged from 0.3-1 μg/ml (stock solution was 10 mg/ml).
In addition, EDTA which also affects the permeability of the cell membrane was tested against growth of P. aeruginosa in combination with the different furanones. EDTA was added at a concentration of 0.02%. […] It is possible that they differently allow for different furanones to penetrate the cell membrane.
Growth of Pseudomonas aeruginosa in the presence of citric acid, toluene, Tween 80 and two different quaternary ammonium compounds was further investigated. The tested furanones was furanone 30 and 34 at 10 μg/ml (concentration of stock solution of furanone compound was 10 mg/ml). The used cell-permeability agents were employed at concentrations which ranged from 0.35-0.001%.

[1] = furanone 10 μg/ml in combination with citric acid

CCCCCC(F)C1=C(Br)/C(=C/Br)OC1=O (centres unmarked) [Compound 57]
duration of inhibition of growth of C. albicans cells (Candida albicans; compound 250 ng/ml alone): 24 h | duration of inhibition of growth of C. albicans cells (Candida albicans; compound 250 ng/ml in combination with 0.01% EDTA): at least 32 hrs

CCCCC1=C(Br)C(=C(Br)Br)OC1=O [Compound 2]
growth of Corynebacterium jeikeium (Corynebacterium jeikeium): inhibited | prolongation of lag phase of growth of Corynebacterium jeikeium (Corynebacterium jeikeium): 20 h | time period of inhibition of growth of E. coli (Escherichia coli): 8 h

CCCCCC(Br)C1=CC(=C(Br)Br)OC1=O (centres unmarked) [Compound 34]
prolongation of lag phase of growth of P. aeruginosa (Pseudomonas aeruginosa; [1]): approximately 3 hours

CCCC(F)C1=C(Br)/C(=C/Br)OC1=O (centres unmarked) [Compound 45]
time period of inhibition of growth of E. coli (Escherichia coli): 8 h

O=C1C=C(Br)/C(=C/Br)O1 [Compound 30]
prolongation of lag phase of growth of P. aeruginosa (in words) (Pseudomonas aeruginosa; [1]): also prolonged the lag phase of growth however not as strongly as compound 34 | prevention of growth of P. aeruginosa (ranking) (Pseudomonas aeruginosa): most effective compounds in preventing growth | growth of P. aeruginosa (Pseudomonas aeruginosa; furanone 10 μg/ml with Tween 80): slight growth inhibition | growth of P. aeruginosa (Pseudomonas aeruginosa; furanone 10 μg/ml with didecyldimethylammonium bromide): inhibited the growth of P. aeruginosa | activity against P. aeruginosa (ranking) (Pseudomonas aeruginosa; furanone 10 μg/ml with polymyxin B 0.3-1 μg/ml): most active compound | growth of P. aeruginosa (Pseudomonas aeruginosa; furanone 10 μg/ml with tetrabutylammoniumhydrogen sulfate (slightly more active of the two quaternary ammonium compounds)): inhibited the growth of P. aeruginosa

O=C1C=C/C(=C/Br)O1 [Compound 56]
prevention of growth of P. aeruginosa (ranking) (Pseudomonas aeruginosa): most effective compounds in preventing growth
